Measured values taken from the NIST ThermoML archive (doi:10.1016/j.fluid.2016.06.011).
Numbers after ± are expanded uncertainties.

Details: Liquid; for mass density: 101.33 kPa, Vibrating tube method; for vapor or sublimation pressure: Closed cell (Static) method

OCC(F)(F)C(F)(F)F [2,2,3,3,3-pentafluoropropanol]
Details | mass density [kg/m3] | vapor or sublimation pressure [kPa]
278.16 K | 1542.78 ± 2.2 | –
279.15 K | 1540.99 ± 2.2 | –
280.15 K | 1539.17 ± 2.2 | –
281.15 K | 1537.35 ± 2.2 | –
282.15 K | 1535.52 ± 2.1 | –
283.15 K | 1533.69 ± 2.1 | –
284.15 K | 1531.86 ± 2.1 | –
285.15 K | 1530.02 ± 2.1 | –
286.15 K | 1528.18 ± 2.1 | –
287.15 K | 1526.33 ± 2.1 | –
288.15 K | 1524.47 ± 2.1 | –
289.15 K | 1522.62 ± 2.1 | –
290.15 K | 1520.75 ± 2.1 | –
291.15 K | 1518.88 ± 2.1 | –
292.15 K | 1517 ± 2.1 | –
293.15 K | 1515.12 ± 2.1 | –
294.15 K | 1513.23 ± 2.1 | –
295.15 K | 1511.35 ± 2.1 | –
296.15 K | 1509.44 ± 2.1 | –
297.15 K | 1507.54 ± 2.1 | –
298.08 K | – | 6.205 ± 0.05
298.15 K | 1505.63 ± 2.1 | –
299.15 K | 1503.71 ± 2.1 | –
300.15 K | 1501.79 ± 2.1 | –
301.15 K | 1499.86 ± 2 | –
302.15 K | 1497.92 ± 2 | –
303.05 K | – | 8.416 ± 0.058
303.15 K | 1495.97 ± 2 | –
304.15 K | 1494.03 ± 2 | –
305.14 K | 1492.07 ± 2 | –
306.15 K | 1490.1 ± 2 | –
307.15 K | 1488.13 ± 2 | –
308.04 K | – | 11.31 ± 0.074
308.15 K | 1486.15 ± 2 | –
309.14 K | 1484.16 ± 2 | –
310.14 K | 1482.16 ± 2 | –
311.14 K | 1480.16 ± 2 | –
312.14 K | 1478.14 ± 2 | –
313.01 K | – | 14.97 ± 0.094
313.14 K | 1476.12 ± 2 | –
314.15 K | 1474.09 ± 2 | –
315.15 K | 1472.06 ± 2 | –
316.14 K | 1470.01 ± 2 | –
317.14 K | 1467.95 ± 2 | –
317.98 K | – | 19.59 ± 0.12
318.15 K | 1465.89 ± 2 | –
319.14 K | 1463.82 ± 1.9 | –
320.14 K | 1461.73 ± 1.9 | –
321.15 K | 1459.64 ± 1.9 | –
322.14 K | 1457.55 ± 1.9 | –
322.96 K | – | 25.41 ± 0.15
323.14 K | 1455.43 ± 1.9 | –
324.14 K | 1453.31 ± 1.9 | –
325.14 K | 1451.18 ± 1.9 | –
326.14 K | 1449.05 ± 1.9 | –
327.14 K | 1446.89 ± 1.9 | –
327.93 K | – | 32.49 ± 0.17
328.15 K | 1444.74 ± 1.9 | –
329.15 K | 1442.57 ± 1.9 | –
330.14 K | 1440.39 ± 1.9 | –
331.14 K | 1438.2 ± 1.9 | –
332.14 K | 1436 ± 1.9 | –
333.14 K | 1433.79 ± 1.9 | –
334.14 K | 1431.57 ± 1.9 | –
335.14 K | 1429.34 ± 1.9 | –
336.14 K | 1427.1 ± 1.8 | –
337.14 K | 1424.84 ± 1.8 | –
338.14 K | 1422.58 ± 1.8 | –
339.14 K | 1420.31 ± 1.8 | –
340.14 K | 1418.03 ± 1.8 | –
341.14 K | 1415.72 ± 1.8 | –
342.14 K | 1413.42 ± 1.8 | –
343.15 K | 1411.1 ± 1.8 | –
344.15 K | 1408.78 ± 1.8 | –
345.15 K | 1406.43 ± 1.8 | –
346.15 K | 1404.08 ± 1.8 | –
347.15 K | 1401.72 ± 1.8 | –
348.15 K | 1399.34 ± 1.8 | –
349.14 K | 1396.95 ± 1.8 | –
350.14 K | 1394.55 ± 1.8 | –
351.14 K | 1392.14 ± 1.8 | –
352.14 K | 1389.72 ± 1.7 | –
353.14 K | 1387.29 ± 1.7 | –

OCC(F)(F)C(F)(F)C(F)(F)F [2,2,3,3,4,4,4-heptafluorobutanol]
Details | mass density [kg/m3] | vapor or sublimation pressure [kPa]
278.14 K | – | 0.7213 ± 0.013
278.15 K | 1633.59 ± 2.4 | –
279.15 K | 1631.74 ± 2.4 | –
280.15 K | 1629.87 ± 2.4 | –
281.15 K | 1627.99 ± 2.4 | –
282.15 K | 1626.11 ± 2.4 | –
283.1 K | – | 1.047 ± 0.015
283.15 K | 1624.23 ± 2.4 | –
284.15 K | 1622.34 ± 2.4 | –
285.15 K | 1620.44 ± 2.4 | –
286.15 K | 1618.54 ± 2.4 | –
287.15 K | 1616.63 ± 2.4 | –
288.08 K | – | 1.495 ± 0.018
288.15 K | 1614.73 ± 2.4 | –
289.15 K | 1612.81 ± 2.4 | –
290.15 K | 1610.89 ± 2.4 | –
291.15 K | 1608.97 ± 2.4 | –
292.15 K | 1607.04 ± 2.4 | –
293.08 K | – | 2.117 ± 0.021
293.15 K | 1605.11 ± 2.4 | –
294.15 K | 1603.16 ± 2.3 | –
295.15 K | 1601.22 ± 2.3 | –
296.15 K | 1599.26 ± 2.3 | –
297.15 K | 1597.31 ± 2.3 | –
298.1 K | – | 2.965 ± 0.025
298.15 K | 1595.34 ± 2.3 | –
299.15 K | 1593.37 ± 2.3 | –
300.15 K | 1591.39 ± 2.3 | –
301.15 K | 1589.41 ± 2.3 | –
302.15 K | 1587.41 ± 2.3 | –
303.07 K | – | 4.086 ± 0.032
303.15 K | 1585.41 ± 2.3 | –
304.15 K | 1583.41 ± 2.3 | –
305.15 K | 1581.4 ± 2.3 | –
306.15 K | 1579.38 ± 2.3 | –
307.15 K | 1577.36 ± 2.3 | –
308.04 K | – | 5.551 ± 0.04
308.15 K | 1575.32 ± 2.3 | –
309.14 K | 1573.28 ± 2.3 | –
310.15 K | 1571.23 ± 2.3 | –
311.15 K | 1569.18 ± 2.2 | –
312.15 K | 1567.12 ± 2.2 | –
313.03 K | – | 7.473 ± 0.051
313.14 K | 1565.05 ± 2.2 | –
314.15 K | 1562.97 ± 2.2 | –
315.15 K | 1560.89 ± 2.2 | –
316.15 K | 1558.79 ± 2.2 | –
317.15 K | 1556.69 ± 2.2 | –
317.98 K | – | 9.905 ± 0.065
318.15 K | 1554.58 ± 2.2 | –
319.14 K | 1552.46 ± 2.2 | –
320.15 K | 1550.34 ± 2.2 | –
321.15 K | 1548.2 ± 2.2 | –
322.14 K | 1546.06 ± 2.2 | –
322.95 K | – | 13.14 ± 0.084
323.14 K | 1543.91 ± 2.2 | –
324.14 K | 1541.75 ± 2.2 | –
325.15 K | 1539.58 ± 2.2 | –
326.14 K | 1537.4 ± 2.2 | –
327.14 K | 1535.21 ± 2.1 | –
327.91 K | – | 17.26 ± 0.096
328.15 K | 1533.02 ± 2.1 | –
329.15 K | 1530.81 ± 2.1 | –
330.14 K | 1528.6 ± 2.1 | –
331.14 K | 1526.38 ± 2.1 | –
332.15 K | 1524.14 ± 2.1 | –
333.14 K | 1521.91 ± 2.1 | –
334.14 K | 1519.66 ± 2.1 | –
335.14 K | 1517.4 ± 2.1 | –
336.14 K | 1515.13 ± 2.1 | –
337.14 K | 1512.85 ± 2.1 | –
338.14 K | 1510.57 ± 2.1 | –
339.14 K | 1508.28 ± 2.1 | –
340.14 K | 1505.97 ± 2.1 | –
341.14 K | 1503.65 ± 2.1 | –
342.14 K | 1501.33 ± 2 | –
343.14 K | 1498.99 ± 2 | –
344.15 K | 1496.65 ± 2 | –
345.15 K | 1494.29 ± 2 | –
346.15 K | 1491.93 ± 2 | –
347.15 K | 1489.55 ± 2 | –
348.14 K | 1487.16 ± 2 | –
349.14 K | 1484.77 ± 2 | –
350.14 K | 1482.37 ± 2 | –
351.14 K | 1479.94 ± 2 | –
352.14 K | 1477.52 ± 2 | –
353.14 K | 1475.08 ± 2 | –
